Assay results taken from a melting point compilation (Tetko et al.; mined from patent text by program, amines drawn as free bases though some values may be those of a salt).

Row | melting point | SMILES
1 | 165 °C | CCCCOc1nc(N)nc2[nH]cnc12
2 | 237 to 240 °C | COC(=O)[C@@H]1CSCc2c(O[Si](C)(C)C(C)(C)C)cc(OC)c(C)c2C(=O)OC[C@H](O)C(=O)N1
3 | 107 to 109 °C | c1ccc(-c2nnsc2-c2ccc3c(c2)OCO3)cc1
4 | 116 to 117 °C | Nc1ccc2c(c1)CC(=O)c1ccccc1O2
5 | 140 to 141 °C | NC(=S)NNC(=O)CCCCc1ccccc1
6 | 117 to 119 °C | CCC1(CCCN2CCN(c3cccc(Cl)c3)CC2)C(=O)Nc2ccc(Cl)cc21 (stereo not drawn)
7 | 51 °C | N#Cc1ccc(C(F)(F)F)cc1Sc1ccccc1
8 | 72 to 75 °C | CN(C)C(=O)n1cc(C(=O)C2CSC(c3cccnc3)N2)c2ccc(Oc3ccc(F)cc3)cc21 (stereo not drawn)
9 | 172 °C | CC(=O)OC1CSC(Oc2ccc(-c3c(C)noc3C)nc2)C(OC(C)=O)C1OC(C)=O (stereo not drawn)
10 | 90 to 92 °C | O=C(NCC1Cc2cc(Cl)cc(-c3ccsc3)c2O1)OCc1ccccc1 (stereo not drawn)
11 | 112 °C | CC(=O)c1ccc(Br)cn1
12 | 166 to 167 °C | CNC(=NS(C)(=O)=O)NCCCSc1ncc(Br)c(NC(N)=NCC(F)(F)F)n1
13 | 156 to 157 °C | COC(=O)c1ccc(NC(=O)c2cc(C(C)C)c(C(C)C)o2)cc1O
14 | 206 °C | Cc1ccc(=NS(=O)(=O)C(F)(F)F)n(-c2cccc(C(F)(F)F)c2)c1
15 | 180 to 182 °C | CCOC(=O)c1nn2c(-c3ccc(OC)cc3)nnc2c2ccccc12
16 | 170 to 171 °C | NC(=O)c1cc(-c2ccc(F)cc2)sc1N
17 | 108 to 112 °C | COC(=O)/C=C/c1ccc(OCCCC(=O)OC)cc1O

Row | melting point | SMILES
18 | 98 to 100 °C | CCCCCCCCCCCCCCC1COC2(CC(c3ccccc3)N(O)C(c3ccccc3)C2)O1 (stereo not drawn)
19 | 88 to 89 °C | c1ccc(Cc2nc(-c3ccncc3)cs2)cc1
20 | 220 °C | O=c1[nH]c2ccc3c(c2o1)OC(CNCc1ccccc1)CO3 (stereo not drawn)
21 | 99 to 101 °C | COC(=O)[C@H]1CN(c2cc(F)c(N3CCSCC3)c(F)c2)C(=O)O1
22 | 99 to 102 °C | CC(C)Sc1ccc2c(c1)NC(=O)C2
23 | 132 to 133 °C | N#Cc1ccc(N2CCN(Cc3cn4cc(Cl)ccc4n3)CC2)c(F)c1
24 | 113 to 114 °C | COc1cc(C=O)c(C=O)cc1OCCCl
25 | 165 to 167 °C | O=C(OC1Oc2ccccc2-n2cnc(-c3noc(C4CC4)n3)c21)c1ccccc1 (stereo not drawn)
26 | 154 to 160 °C | Nc1nc(NCCc2ccc(CCC3CCCCC3)cc2)nc2c1ncn2C1OC(CO)C(O)C1O (stereo not drawn)
27 | 176 to 178 °C | Cc1c(NC(=O)c2ccc(-c3ccc(F)cc3)cc2)ccc2cc(CN3CCOCC3)cnc12
28 | 123 to 125 °C | CCc1c(CC(=O)NCCCCCCNC(=O)Cc2ccc(OC)cc2)ccc(OC)c1OC
29 | 96 to 97 °C | Cc1nc(C(O)CNC(C)(C)C)ccc1OCc1ccccc1 (stereo not drawn)
30 | 164 to 166 °C | Cc1c(C(=O)N(C)Cc2ccc3c(Br)c(OCc4nnn[nH]4)ccc3c2)oc2ccccc12
31 | 307 to 310 °C | Cc1cccc(C)c1N1CC(C)N(c2c(C)cccc2C)C1=NCC(=O)O (stereo not drawn)
32 | 134 to 136 °C | CC(C)c1c(C=O)c(-c2ccccc2)c2c3ccccc3ccn12
33 | 71.5 to 72.5 °C | CC(=O)Cc1ccc(-n2ccnc2)cc1
34 | 249 to 251 °C | O=c1cc(Sc2ccc(O)cc2)oc2cc(O)cc(O)c12

The next lines start with the compound.

Row | SMILES | melting point
35 | COC1(c2cccc(Sc3ccc4c(ccc(=O)n4CC(F)(F)F)c3)c2)CCOCC1 | 138 to 140 °C
36 | CC(C)(C)OC(=O)c1ccc(OCCCCl)cc1 | 57.5 to 58.5 °C
37 | CCCN(CC)C(C)CN1CCc2c(c(=O)oc3cc(OC)ccc23)C1 (stereo not drawn) | 100 to 101 °C
38 | O=C(c1sc(NC(=O)N2CCOCC2)nc1-c1ccco1)C1CCCC1 | 108 to 110 °C
39 | CCOc1ccc(C(=O)N2CCc3cc(S(=O)(=O)n4cc(-c5ccccc5)[nH]c4=O)ccc32)cc1 | 249 to 253 °C
40 | CC1(C)CC(=O)C2=C(C1)NC1=C(C(=O)CC(C)(C)C1)C2c1cccc(Oc2ncccn2)c1 | 220 to 221 °C
41 | COc1nc2cc(Cl)c(Cl)c(-n3c(CN4CCOCC4)nnc3-c3cccnc3)c2nc1OC | 178 to 179 °C
42 | CSc1ccc(/C=C2\C=C(CCN(O)C(N)=O)c3ccccc32)cc1 | 175 to 176 °C
43 | Cc1cc(-c2cc(C(F)F)n3ncc(C(=O)Nc4cccc(S(=O)(=O)NC5CC5)c4)c3n2)ccc1C(F)(F)F | 199 °C
44 | CC(C)C(=O)N[C@@H](CS)C(=O)O | 103 to 104 °C
45 | O=C(Nc1ccc(C(=O)N2CCC(O)c3ccccc32)cc1)c1cc(Cl)cc(Cl)c1 (stereo not drawn) | 215 to 217 °C
46 | CCCCCCCCc1c(N)nc(-n2cncn2)nc1CC | 90 to 91 °C
47 | CSC(=NC#N)Nc1ccc(C#N)cc1 | 220 to 225 °C
48 | CCCc1ccc(OCCc2c[nH]cn2)cc1 | 168 to 171 °C
49 | CN(C)c1ccc(CNC(=O)CNC(=O)Nc2ccc(C(=N)N)cc2)cc1 | 209 to 214 °C
50 | Cc1cccc([N+](=O)[O-])c1CC(CC(=O)O)C(=O)O (stereo not drawn) | 172 to 176 °C
51 | Cc1cc(OCc2ccc(-c3ccccc3-c3nnn(C(c4ccccc4)(c4ccccc4)c4ccccc4)n3)cc2)c(C(=O)c2ccccc2)c(C)n1 | 84 to 91 °C
52 | Nc1c(-c2cccc(Oc3ccccc3)c2)c(=O)[nH]c2cc(Cl)ccc12 | 196 to 197 °C
53 | CC1(C)CC(=O)c2cc[nH]c2C1 | 177 to 178 °C
54 | COC(=O)c1ccc(CCl)nc1C1=NC(C)(C(C)C)C(=O)N1 (stereo not drawn) | 127 to 129 °C
55 | COc1cccc(Oc2c(Cl)nc(-c3cccs3)nc2NS(=O)(=O)c2ccc(C(C)(C)C)cc2)c1 | 206 to 207 °C
56 | CN1CCN(N(c2ccccc2)c2nc3c(-c4c(F)cccc4F)n[nH]c3s2)CC1 | 208 to 210 °C
57 | Clc1c2ccccc2nc2c1oc1ccccc12 | 158 to 159 °C

Row | SMILES | melting point
58 | O=C(Nc1nc(C(Cl)(Cl)Cl)ns1)C(F)(F)F | 116 °C
59 | COc1cc2cc(C(C#N)N3CCOCC3)sc2cc1OC (stereo not drawn) | 196 to 199 °C
60 | CS(=O)(=O)c1ccc(N2CCC(N3CCCC3)CC2)cc1 | 166 to 170 °C
61 | CC(=O)c1cc(S(=O)(=O)c2ccccc2)ccc1OC[C@@H]1CO1 | 112 to 114 °C
62 | COC(=O)c1cc(OC)c(Cc2c(N)nc(N)nc2Cl)c(OC)c1 | 228 to 229 °C
63 | CCCC(=O)c1ccc(OC)c(C(=O)Cl)c1 | 65 °C
64 | Nc1sc2c(c1C(=O)c1ccc3ccccc3c1)CCCC2 | 95 to 97 °C
65 | COC(=O)Cc1cccc2c1NC(=O)C2 | 156 to 157 °C
66 | COC(=O)CCCNC(=O)CNS(=O)(=O)c1ccc2ccccc2c1 | 187 to 189 °C
67 | O=C(C(=O)C12CC3CC(CC(C3)C1)C2)c1ccc(OC(F)F)cc1 | 118 to 120 °C
68 | Cc1cc(C(=O)CBr)c(C)o1 | 56 to 58 °C
69 | CC1(C)C(=O)Nc2ccc(N)cc21 | 185 to 191 °C
70 | O=C1OCc2c(-c3noc(C4CC4)n3)ncn2-c2ccccc21 | 206 to 209 °C
71 | Clc1ccc(N2CCN(Cc3c[nH]c4ncccc34)CC2)cc1Cl | 219 to 220 °C
72 | Cc1ccc(C(=O)OCCOc2ccc(OC(F)(F)F)cc2)cc1 | 76 to 77.5 °C
73 | Cc1ccccc1-c1cc(O)ncc1C(=O)N(C)Cc1cc(C(F)(F)F)cc(C(F)(F)F)c1 | 91 to 93 °C
74 | O=C1Nc2c(ccc3ccccc23)SC1=Cc1ccc(Cl)cc1 | 277 to 279 °C
75 | CC(C)(N)CNS(=O)(=O)c1ccccc1 | 152 to 153 °C
76 | Cc1nc(-c2ccc(C(F)(F)F)cc2)[nH]c1CN1CCN(C(c2ccccc2)c2ccccc2)CC1 | 244 °C
77 | Cc1cc(C2N(c3ccccc3)CCN2c2ccccc2)cc(Cl)c1O | 146 to 147 °C
78 | O=C1c2ccccc2C(=O)N1CC(=O)N1c2ccccc2N(Cc2cccc([N+](=O)[O-])c2)C(=O)[C@H]2CCC[C@H]21 (relative stereo) | 250 to 252 °C
79 | c1ccc(Cn2c3c(c4ccccc42)CCC(Cc2nnn[nH]2)S3)cc1 (stereo not drawn) | 160 to 165 °C
80 | CN(C)CCNC(=O)c1cccc(N)c1 | 97 to 100 °C

Row | SMILES | melting point
81 | CC1CC(=O)CCC1c1ccccc1 (stereo not drawn) | 71.5 to 72.5 °C
82 | O=C(NCC1CC1)NCC1CC1 | 127 to 130 °C
83 | Cc1c(-c2cccnn2)ssc1=S | 193 °C
84 | Cc1cc(C)cc(OCCCC(=O)O)c1 | 66 to 68.5 °C
85 | CC1(C)CCCC(NC(=O)OC(C)(C)C)C(=O)N1 (stereo not drawn) | 118 to 120 °C
86 | CC(C)(C)C(c1csc2ccccc12)[C@@H](OC(N)=O)c1nc(-c2ccccc2)c[nH]1 (stereo partly drawn) | 116 to 120 °C
87 | COc1ccnc(CCc2nc3cc(-c4ccc(S(=O)(=O)N5CCN(C)CC5)cc4)cnc3[nH]2)c1 | 193 to 195 °C
88 | CCN(CC)c1nc(-c2ccc(OC)c(OC)c2)nc2sc(C#N)c(C)c12 | 159 to 161 °C
89 | CC1(N2Cc3c(N)cccc3C2=O)CCC(=O)NC1=O (stereo not drawn) | 289 to 292 °C
90 | O=C(O)c1cnccc1-c1ccccc1 | 245 to 246 °C
91 | NC(=O)N(O)CC1=CCC(c2ccccc2)CC1 (stereo not drawn) | 142 to 143 °C
92 | O=C(O)c1cc2cc(CCNS(=O)(=O)c3ccc(Cl)cc3)ccc2o1 | 193 to 195 °C
93 | O=C1C=C(c2c[nH]c3ccc(Cl)cc23)C(=O)N1 | 254 to 264 °C
94 | CC(C)Oc1ccc(Cl)c2c(=O)c3ccccc3sc12 | 91 to 93 °C
95 | Oc1ccc(OCCn2nc3c(n2)CCCC3)cc1 | 93 °C
96 | COc1ccc2c(c1)CCC1C2CCC2(C)C1CCC2N(C=O)CCOCCO (stereo not drawn) | 134 to 135 °C
97 | CN(C)C(=O)CC1(C)OCCc2c1[nH]c1c3c(ccc21)CCCC3 (stereo not drawn) | 176 to 178 °C
98 | COc1cccc2c1nc(C(F)F)n2-c1nc(-c2ccc(N)nc2)nc(N2CCOCC2)n1 | 259 to 261 °C
99 | Cc1cccc(C)c1CS(=O)(=O)NCCc1c(CCCc2ccc(C(=O)O)cc2)c2cc(Cl)ccc2n1C(c1ccccc1)c1ccccc1 | 193 °C
100 | CCOC(=O)CNC(=S)NC(=Nc1ccccc1)c1ccccc1 | 151 to 152 °C
101 | CCCCCCCCc1c(CCC)nc2ncnn2c1N | 165 °C
102 | COc1cc2c(cc1S(=O)(=O)Cl)CCN(C(C)=O)CC2 | 153 to 160 °C
103 | COc1ccc2cc([C@H](C)C(=O)OCC(=O)N(C)CC(=O)NCCO[N+](=O)[O-])ccc2c1 | 79 to 81 °C
